Data as given in patent US10766869B2, “Triazoles for the treatment of demyelinating dieases” (Vertex Pharmaceuticals Incorporated, priority 2015, dated 2020).
Read-outs that look alike come from different tables or passages of the source.

System: primary rat mixed cortical cells
Test: In vitro myelination assay (MBP positive myelin strands, fold myelin pixels above background)
Format: cell-based
Conditions: Rattus norvegicus; for fold induction at 1 µM: 1.0 μM compound; for fold induction at 10 µM: 10.0 μM compound
Summary of the method: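 Myelination read as total MBP-immunopositive strand pixels per well, imaged at 10× after fixation on day 14 and expressed relative to untreated wells, at 1.0 and 10.0 μM. Cells: dissociated postnatal day 1 rat cortex, cultured two weeks with compound, re-dosed at days 6 and 10.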

[1] = read-out: Fold myelin pixels above background relative to baseline of no added compound
[2] = relative to baseline of no added compound, read-out: Fold myelin pixels above background
[3] = relative to baseline of no added compound, read-out: Fold myelin pixels above background, 1.0 μM
[4] = relative to baseline of no added compound, read-out: Fold myelin pixels above background, 10.0 μM

Row | Compound | fold induction at 1 µM [1] | fold induction at 10 µM [1] | fold induction at 1 µM [2] | fold induction at 10 µM [2] | further results
1 | CCC1CN(c2cc(C)cc(Nc3ncn(-c4cc(F)cc(F)c4)n3)c2)CCN1CC(C)O (stereo not drawn) [Compound 1056, 1-[4-[3-[[1-(3,5-difluorophenyl)-1,2,4-triazol-3-yl]amino]-5-methyl-phenyl]-2-ethyl-piperazin-1-yl]propan-2-ol] | 1 to 10 | ≤ 1 | – | – | –
2 | CC(=O)N1CC(CNc2cc(C)cc(Nc3ncn(-c4cc(F)cc(F)c4)n3)c2)C1 [Compound 1031, 1-[3-[[3-[[1-(3,5-difluorophenyl)-1,2,4-triazol-3-yl]amino]-5-methyl-anilino]methyl]azetidin-1-yl]ethanone] | 10 to 100 | ≤ 1 | – | – | –
3 | Cc1cc(Nc2ncn(-c3ccccn3)n2)cc(C2COC2)c1 [Compound 404, N-[3-methyl-5-(oxetan-3-yl)phenyl]-1-(2-pyridyl)-1,2,4-triazol-3-amine] | – | – | 100 to 1000 | 100 to 1000 | –
4 | Fc1ccc(-n2cnc(Nc3cc(N4CCOCC4)nc(N4CCOCC4)c3)n2)cc1F [Compound 393, N-[1-(3,4-difluorophenyl)-1,2,4-triazol-3-yl]-2,6-dimorpholino-pyridin-4-amine] | – | – | 100 to 1000 | ≤ 1 | –
5 | Cc1cc(Nc2ncn(-c3cc(F)cc(F)c3)n2)cc(OCC2CCOC2)c1 (stereo not drawn) [Compound 648, 1-(3,5-difluorophenyl)-N-[3-methyl-5-(tetrahydrofuran-3-ylmethoxy)phenyl]-1,2,4-triazol-3-amine] | – | – | 10 to 100 | 10 to 100 | –
6 | Cc1cc(Nc2ncn(-c3ccccc3)n2)cc(C2CCCN(C3COC3)C2)c1 (stereo not drawn) [Compound 248, N-[3-methyl-5-[1-(oxetan-3-yl)-3-piperidyl]phenyl]-1-phenyl-1,2,4-triazol-3-amine] | – | – | – | – | fold induction at 1 µM [3]: 100 to 1000; fold induction at 10 µM [4]: 1 to 10
7 | Cc1cc(Nc2ncn(-c3cc(F)cc(F)c3)n2)cc(C2(O)CCN(C3COC3)CC2)c1 [Compound 516, 4-[3-[[1-(3,5-difluorophenyl)-1,2,4-triazol-3-yl]amino]-5-methyl-phenyl]-1-(oxetan-3-yl)piperidin-4-ol] | – | – | 10 to 100 | 10 to 100 | –
8 | Cc1cc(Nc2ncn(-c3cc(F)cc(F)c3)n2)cc(C2CCCN(C3CC3)C2)c1 (stereo not drawn) [Compound 466, N-[3-(1-cyclopropyl-3-piperidyl)-5-methyl-phenyl]-1-(3,5-difluorophenyl)-1,2,4-triazol-3-amine] | – | – | 100 to 1000 | ≤ 1 | –
9 | Cc1cc(Nc2ncn(-c3cc(F)cc(F)c3)n2)cc(N2CC(N3CCC(F)CC3)C2)c1 [Compound 617, 1-(3,5-difluorophenyl)-N-[3-[3-(4-fluoro-1-piperidyl)azetidin-1-yl]-5-methyl-phenyl]-1,2,4-triazol-3-amine] | – | – | 10 to 100 | 10 to 100 | –
10 | Cc1cc(Nc2ncn(-c3cc(F)cc(F)c3)n2)nc(OCC2CC2)c1 [Compound 980, 6-(cyclopropylmethoxy)-N-[1-(3,5-difluorophenyl)-1,2,4-triazol-3-yl]-4-methyl-pyridin-2-amine] | 1 to 10 | 1 to 10 | – | – | –
11 | Cc1cc(Nc2ncn(-c3cc(F)cc(F)c3)n2)cc(N2CC(O)(C(C)C)C2)c1 [Compound 518, 1-[3-[[1-(3,5-difluorophenyl)-1,2,4-triazol-3-yl]amino]-5-methyl-phenyl]-3-isopropyl-azetidin-3-ol] | – | – | 10 to 100 | 10 to 100 | –
12 | Cc1cc(Nc2ncn(-c3cc(F)cc(F)c3)n2)cc(N2CCC(N3CCCC3)C2)c1 (stereo not drawn) [Compound 1060, 1-(3,5-difluorophenyl)-N-[3-methyl-5-(3-pyrrolidin-1-ylpyrrolidin-1-yl)phenyl]-1,2,4-triazol-3-amine] | 1 to 10 | ≤ 1 | – | – | –
13 | Cc1cc(Nc2ncn(-c3cc(F)cc(F)c3)n2)cc(N2CC3(CCO3)C2)c1 [Compound 508, 1-(3,5-difluorophenyl)-N-[3-methyl-5-(3-oxa-6-azaspiro[3.3]heptan-6-yl)phenyl]-1,2,4-triazol-3-amine] | – | – | 100 to 1000 | 10 to 100 | –
14 | FC(F)c1cc(Nc2ncn(-c3ccccc3)n2)cc(N2CCN(C3CC3)CC2)c1 [Compound 348, N-[3-(4-cyclopropylpiperazin-1-yl)-5-(difluoromethyl)phenyl]-1-phenyl-1,2,4-triazol-3-amine] | – | – | – | – | fold induction at 1 µM [3]: 1000 to 10000; fold induction at 10 µM [4]: 100 to 1000
15 | Fc1ccc(-n2cnc(Nc3cc(C(F)F)cc(N4CCN(C5COC5)CC4)n3)n2)cc1Cl [Compound 859, N-[1-(3-chloro-4-fluoro-phenyl)-1,2,4-triazol-3-yl]-4-(difluoromethyl)-6-[4-(oxetan-3-yl)piperazin-1-yl]pyridin-2-amine] | 1 to 10 | 1 to 10 | – | – | –
16 | Cc1cc(Nc2ncn(-c3cc(F)cc(F)c3)n2)c(F)c(N2CC3(COC3)C2)c1 [Compound 743, 1-(3,5-difluorophenyl)-N-[2-fluoro-5-methyl-3-(2-oxa-6-azaspiro[3.3]heptan-6-yl)phenyl]-1,2,4-triazol-3-amine] | – | – | 1 to 10 | 10 to 100 | –
17 | Fc1ccc(-n2cnc(Nc3cc(C(F)(F)F)cc(N4CCN(C5COC5)CC4)n3)n2)cc1 [Compound 728, N-[1-(4-fluorophenyl)-1,2,4-triazol-3-yl]-6-[4-(oxetan-3-yl)piperazin-1-yl]-4-(trifluoromethyl)pyridin-2-amine] | – | – | 10 to 100 | ≤ 1 | –
18 | Cc1cc(Nc2ncn(-c3cc(F)cc(F)c3)n2)nc(N2CCN([C@H]3CCOC3)CC2)c1 (single isomer, unassigned) [Compound 673] | – | – | 10 to 100 | 100 to 1000 | –
19 | Cc1cc(Nc2ncn(-c3cc(F)cc(F)c3)n2)cc(C2CN(C3COC3)C2)c1 [Compound 229, 1-(3,5-difluorophenyl)-N-[3-methyl-5-[1-(oxetan-3-yl)azetidin-3-yl]phenyl]-1,2,4-triazol-3-amine] | – | – | – | – | fold induction at 1 µM [3]: 100 to 1000; fold induction at 10 µM [4]: 100 to 1000
20 | N#Cc1cc(Nc2ncn(-c3cccc(F)c3)n2)cc(N2CCOCC2)c1 [Compound 737, 3-[[1-(3-fluorophenyl)-1,2,4-triazol-3-yl]amino]-5-morpholino-benzonitrile] | – | – | 10 to 100 | 10 to 100 | –
21 | Fc1cc(Nc2ncn(-c3ccc(F)c(F)c3)n2)cc(N2CCCC2)c1 [Compound 99, 1-(3,4-difluorophenyl)-N-(3-fluoro-5-pyrrolidin-1-yl-phenyl)-1,2,4-triazol-3-amine] | – | – | – | – | fold induction at 1 µM [3]: ≤ 1; fold induction at 10 µM [4]: ≤ 1
22 | Fc1cc(F)cc(-n2cnc(Nc3cc(N4CCN(C5COC5)CC4)cc(N4CCN(C5COC5)CC4)n3)n2)c1 [Compound 726, N-[1-(3,5-difluorophenyl)-1,2,4-triazol-3-yl]-4,6-bis[4-(oxetan-3-yl)piperazin-1-yl]pyridin-2-amine] | – | – | 1 to 10 | 1 to 10 | –
23 | Cc1cc(Nc2ncn(-c3cc(F)cc(F)c3)n2)cc(NC2CCN(C3CCOC3)CC2)c1 (stereo not drawn) [Compound 1064, N3-[1-(3,5-difluorophenyl)-1,2,4-triazol-3-yl]-5-methyl-N1-(1-tetrahydrofuran-3-yl-4-piperidyl)benzene-1,3-diamine] | 10 to 100 | ≤ 1 | – | – | –
24 | Cc1cc(Nc2ncn(-c3cc(F)cc(F)c3)n2)cc(N2CCN([C@H]3CCOC3)CC2)c1 [Compound 530, 1-(3,5-difluorophenyl)-N-[3-methyl-5-[4-[(3S)-tetrahydrofuran-3-yl]piperazin-1-yl]phenyl]-1,2,4-triazol-3-amine] | – | – | 100 to 1000 | 100 to 1000 | –
25 | Cc1cc(Nc2ncn(-c3cc(F)cc(F)c3)n2)cc(N2CCN([C@@H]3CCOC3)CC2)c1 [Compound 531, 1-(3,5-difluorophenyl)-N-[3-methyl-5-[4-[(3R)-tetrahydrofuran-3-yl]piperazin-1-yl]phenyl]-1,2,4-triazol-3-amine] | – | – | 100 to 1000 | 100 to 1000 | –
26 | Cc1cc(Nc2ncn(-c3ccccc3)n2)cc(N2CC(N3CCOCC3)C2)c1 [Compound 704, N-[3-methyl-5-(3-morpholinoazetidin-1-yl)phenyl]-1-phenyl-1,2,4-triazol-3-amine] | – | – | 10 to 100 | ≤ 1 | –
27 | COCCN(C)C(=O)C1CN(c2cc(C)cc(Nc3ncn(-c4cc(F)cc(F)c4)n3)c2)C1 [Compound 824, 1-[3-[[1-(3,5-difluorophenyl)-1,2,4-triazol-3-yl]amino]-5-methyl-phenyl]-N-(2-methoxyethyl)-N-methyl-azetidine-3-carboxamide] | 10 to 100 | 1 to 10 | – | – | –
28 | Cc1cc(Nc2ncn(-c3cc(F)cc(F)c3)n2)cc(N2CCOC(CCO)C2)c1 (stereo not drawn) [Compound 958, 2-[4-[3-[[1-(3,5-difluorophenyl)-1,2,4-triazol-3-yl]amino]-5-methyl-phenyl]morpholin-2-yl]ethanol] | 10 to 100 | ≤ 1 | – | – | –
29 | Cc1cc(Nc2ncn(-c3cc(F)cc(F)c3)n2)cc(NC2CCN(C3COC3)CC2)c1 [Compound 38, N3-[1-(3,5-difluorophenyl)-1,2,4-triazol-3-yl]-5-methyl-N1-[1-(oxetan-3-yl)-4-piperidyl]benzene-1,3-diamine] | – | – | – | – | fold induction at 1 µM [3]: 10 to 100; fold induction at 10 µM [4]: 10 to 100
30 | Cc1cc(Nc2ncn(-c3cnccn3)n2)c(F)c(OC2CCOC2)c1 (stereo not drawn) [Compound 952, N-(2-fluoro-5-methyl-3-tetrahydrofuran-3-yloxy-phenyl)-1-pyrazin-2-yl-1,2,4-triazol-3-amine] | 1 to 10 | 1 to 10 | – | – | –
